Measured values as given in patent US12091425B2 (AMGEN INC., priority 2016, dated 2024).
“And” between values parts separate entries of the source, which are not always exact repeats. Identical values can stand only once. Like-named read-outs stand apart in the source and are kept apart here.

Details: 16-membered ring

[(1S,3′R,6′R,7′S,8′Z,12′R)-12′-((2R)-2-((tert-butyl(diphenyl)silyl)oxy)propyl)-6-chloro-7′-hydroxy-3,4-dihydro-2h,15′h-spiro[naphthalene-1,22′-[20]oxa[13]thia[1,14]diazatetracyclo[14.7.2.0^3,6.0^19,24]pentacosa[8,16,18,24]tetraen]-15′-one 13′,13′-dioxide and (1S,3′R,6′R,7′S,8′E,12′R)-12′-((2R)-2-((tert-butyl(diphenyl)silyl)oxy)propyl)-6-chloro-7′-hydroxy-3,4-dihydro-2h,15′h-spiro[naphthalene-1,22′-[20]oxa[13]thia[1,14]diazatetracyclo[14.7.2.0^3,6.0^19,24]pentacosa[8,16,18,24]tetraen]-15′-one 13′,13′-dioxide] or [(1S,3′R,6′R,7′S,8′Z,12′S)-12′-((2R)-2-((tert-butyl(diphenyl)silyl)oxy)propyl)-6-chloro-7′-hydroxy-3,4-dihydro-2h,15′h-spiro[naphthalene-1,22′-[20]oxa[13]thia[1,14]diazatetracyclo[14.7.2.0^3,6.0^19,24]pentacosa[8,16,18,24]tetraen]-15′-one 13′,13′-dioxide and (1S,3′R,6′R,7′S,8′E,12′S)-12′-((2R)-2-((tert-butyl(diphenyl)silyl)oxy)propyl)-6-chloro-7′-hydroxy-3,4-dihydro-2h,15′h-spiro[naphthalene-1,22′-[20]oxa[13]thia[1,14]diazatetracyclo[14.7.2.0^3,6.0^19,24]pentacosa[8,16,18,24]tetraen]-15′-one 13′,13′-dioxide]
ring closure, isolated yield (rcm bond, Hoveyda-Grubbs II, DCM, 1.4 mM, 45.0 °C): 38%
ring closure, isolated yield (rcm bond, Hoveyda-Grubbs II, DCM, 1.51 mM, 45.0 °C): 52%

C[C@]12CC[C@@H]1CN1C[C@@]3(CCCc4cc(Cl)ccc43)COc3ccc(cc31)C(=O)NS(=O)(=O)CC/C=C/C[C@@H]2O
ring closure, isolated yield (from C=CCCS(=O)(=O)NC(=O)c1ccc2c(c1)N(C[C@@H]1CC[C@@]1(C)[C@@H](O)CC=C)C[C@@]1(CCCc3cc(Cl)ccc31)CO2, rcm bond, 1.5 h): 4.76%

(1S,3′R,6′R,7′S,8′E,12′S)-12′-((2R)-2-((tert-butyl(diphenyl)silyl)oxy)propyl)-6-chloro-7′-hydroxy-3,4-dihydro-2H,15′H-spiro[naphthalene-1,22′-[20]oxa[13]thia[1,14]diazatetracyclo[14.7.2.0^3,6.0^19,24]pentacosa[8,16,18,24]tetraen]-15′-one 13′,13′-dioxide or (1S,3′R,6′R,7′S,8′E,12′R)-12′-((2R)-2-((tert-butyl(diphenyl)silyl)oxy)propyl)-6-chloro-7′-hydroxy-3,4-dihydro-2H,15′H-spiro[naphthalene-1,22′-[20]oxa[13]thia[1,14]diazatetracyclo[14.7.2.0^3,6.0^19,24]pentacosa[8,16,18,24]tetraen]-15′-one 13′,13′-dioxide
ring closure, isolated yield (rcm bond, Hoveyda-Grubbs II, DCM, 1.5 mM, 45.0 °C): 20%

O=C1NS(=O)(=O)CC2CC2C=C[C@H](O)[C@@H]2CC[C@H]2CN2C[C@@]3(CCCc4cc(Cl)ccc43)COc3ccc1cc32 (single isomer, unassigned)
ring closure, isolated yield (from C=C[C@H](O)[C@@H]1CC[C@H]1CN1C[C@@]2(CCCc3cc(Cl)ccc32)COc2ccc(C(=O)NS(=O)(=O)CC3CC3/C=C/C)cc21, rcm bond, Hoveyda-Grubbs II, DCE, 2.0 mM, 60.0 °C, 6.0 h): 12%

O=C1NS(=O)(=O)C2CC(/C=C/[C@H](O)[C@@H]3CC[C@H]3CN3C[C@@]4(CCCc5cc(Cl)ccc54)COc4ccc1cc43)C2
ring closure, isolated yield (from NS(=O)(=O)C1CC(/C=C/[C@H](O)[C@@H]2CC[C@H]2CN2C[C@@]3(CCCc4cc(Cl)ccc43)COc3ccc(C(=O)O)cc32)C1, amide bond, EDC/DMAP, DCM, 2.0 mM): 3.3% and 22%

(1S,3′R,6′R,7′S,8′Z,12′S)-12′-((2R)-2-((tert-butyl(diphenyl)silyl)oxy)propyl)-6-chloro-7′-hydroxy-3,4-dihydro-2H,15′H-spiro[naphthalene-1,22′-[20]oxa[13]thia[1,14]diazatetracyclo[14.7.2.0^3,6.0^19,24]pentacosa[8,16,18,24]tetraen]-15′-one 13′,13′-dioxide or (1S,3′R,6′R,7′S,8′Z,12′R)-12′-((2R)-2-((tert-butyl(diphenyl)silyl)oxy)propyl)-6-chloro-7′-hydroxy-3,4-dihydro-2H,15′H-spiro[naphthalene-1,22′-[20]oxa[13]thia[1,14]diazatetracyclo[14.7.2.0^3,6.0^19,24]pentacosa[8,16,18,24]tetraen]-15′-one 13′,13′-dioxide
ring closure, isolated yield (rcm bond, Hoveyda-Grubbs II (10 mol%), DCM, 1.5 mM, 45.0 °C): 30%
